Assay results as given in patent US4740501A (priority 1985, dated 1988).
“And” between values parts separate entries of the source, which are not always exact repeats. Identical values can stand only once.

What was measured:
[1] = system: MJY-alpha mammary tumor cell layers; assay: Morphology of treated cell layers (May-Grunwald-Giemsa); type: cell-based; settings: 5 and 10 ug/ml for 15 to 60 minutes
Experimental: Confluent MJY-alpha mammery tumor cell layers were treated with […] or diluent for 15 or 60 minutes, washed, and then incubated in growth medium. Representative cell layers were fixed and stained with May-Grunwald-Giemsastain from one (1) to seven (7) days after treatment as specified. Hemicysts or domes which are usually observed in short-term cultures of murine, MMTV-induced mammary tumors are not present in MJY-alpha cultures (FIG. 12a and b). […] Cellular pseudopodia were withdrawn and the cytoplasm appeared condensed around the nuclei (FIG. 12c and d). The most striking feature of exposure to high concentrations of PTT.119 was the ruffling of the plasma membrane and the formation of vesicles and blebs. […] This alteration was closely followed by visible increases in the cytosol volume or rarefaction of the cytoplasm (FIG. 12f). The degree of further pathological alterations of MJY-alpha mammary tumor cells was dependent on the dosage of PTT.119 and included lobulation and fragmentation of the nuclei, and the formation of multinuclear cells (FIG. 12f and h). […] Chromosomal condensation was not inhibited in multinucleated cells or in cells with highly lobulated or fragmented nuclei (FIG. 12h).

[2] = system: MJY-alpha mammary tumor cells; assay: PTT.119 induced resistance test, long-term low dose culture; type: cell-based
L-1210 leukemia cells = assay: Tumor cell survival after pulse treatment; type: cell-based, Mouse; settings: for Percent Tumor Cell Survival: viability 24 hr later
Experimental: All rabbit, marmoset and human lymphoid in vitro cell lines, murine L-1210 leukemia and primary human leukemias were treated at cell concentrations of 6-10×10^5 cells/ml. The tripeptide was added to the cell suspensions to yield final concentrations of 1 to 50 ug/ml. Cultures were treated at 37° C. for periods ranging between 15 min to 24 hr. Following treatment, aliquots were removed and centrifuged at 800 rpm for 9 min, at 5° C. Treatment media were gently aspirated and the lymphoid cells resuspended in fresh growth media and reincubated at 37° C. Culture media were changed daily by gently pelleting the cells and exchanging 60-70% of the spent supernatant with fresh media.
Survival of tumor cell layers or suspensions was ascertained using 0.5% trypan blue in 0.1M phosphate-buffered saline, pH 7.25. Cell layers were released from the Multidish-4 wells with 0.5 ml STV, diluted 2 to 10 fold with the vital strain; tumor cells in suspension cultures were directly mixed 1:1 with the trypan blue dye. Tumor cells were enumerated using a haemocytometer; all 10 fields were counted for every sample. Percent viable cells was determined by direct comparison of the numbers of cells excluding trypan blue in treated cultures to those in untreated or diluent-treated parallel cultures. There were no significant differences in the viability of cells treated with diluent when compared to untreated cells.
To delineate the minimum concentration and duration of the tripeptide compound exposure to induce cytolysis, MJY-alpha and B-16 melanoma cell layers and L-1210 leukemia cell suspensions were exposed to 0.5 to 50 ug of the tripeptide compound per ml of solvent for 0.25 to 4 hours. The tripeptide compound was then removed and the cells washed and reincubated in media growth. Tumor cell viability was determined 24 hrs after pulse tripeptide compound exposure. Cell survival of all three tumor cell lines was reduced by an exposure period of as short as 15 min (Table 4). The degree of cytolysis increased with extension of the treatment periods from 15 min to 4 hrs, although the decreases in cell survival were not proportional to the duration of the exposure. […] Comparison of the data in Tables 2 and 4 reveal that cells exposed to the tripeptide compound for one hour were irreversibly damaged when assayed a day later despite their apparent viability immediately after treatment.
The reversibility of the cancericidal activity of the tripeptide compounds on L-1210 leukemia, MJY-alpha mammary tumor and B-16 melanoma cells was also monitored in the nonhostile tissue culture environment. Cell suspensions of these tumor models were treated with tripeptide for 15 to 240 min, washed and either inoculated into mice or maintained as suspension (L-1210) or monolayer cultures (MJY-alpha and B-16). Reductions in tumor cells survival were negligible (0-6%) in all three tumor systems at initiation of in vitro cultures following treatment with 50 ug tripeptide/ml for as long as 4 hrs. However, significant decreases in cellular viabilities of L-1210 leukemia (FIG. 9), MJY-alpha mammary tumor (FIG. 10) and B-16 melanoma (FIG. 11) tumor cells were observed 24 hr following tripeptide exposure and for the next 6 days.

MMTV polypeptides = type: cell-based, mouse
L1210/L-PAM leukemia = assay: cells; type: cell-based, mice

`CCOC(=O)[C@H](CCSC)NC(=O)[C@H](Cc1cccc(N(CCCl)CCCl)c1)NC(=O)[C@@H](N)Cc1ccc(F)cc1.Cl` [PTT.119, 3-(p-fluorophenyl)-L-alanyl-3-[m-bis(2-chloroethyl)aminophenyl]-L-alanyl-L-methionine ethyl ester hydrochloride] was tested, and the “appearance of cell layers” value [1] was “appeared unchanged”, the “survival of monolayers in continuous treatment” value ([2]; 15 uM) was “did not survive beyond the second passage” and the “dose response curves of treated lines vs previously untreated MJY-alpha cells” value ([2]; alpha-0.15, alpha-1.5, alpha-7.5, 8 months, 24 h challenge with 1.5-75 uM) was “No alteration”. The “Percent Tumor Cell Survival” value (L-1210 leukemia cells; L-1210, 1 ug/ml, pulse 1 hr) was 83%, the “Percent Tumor Cell Survival” value (L-1210 leukemia cells; L-1210, 1 ug/ml, pulse 2 hr) was 78% and the “Percent Tumor Cell Survival” value (L-1210 leukemia cells; L-1210, 1 ug/ml, pulse 4 hr) was 45%. The “Percent Tumor Cell Survival” value (L-1210 leukemia cells; L-1210, 1 ug/ml, pulse .25 hr) was 80%, the “Percent Tumor Cell Survival” value (L-1210 leukemia cells; L-1210, 1 ug/ml, pulse .5 hr) was 87% and the “Percent Tumor Cell Survival” value (L-1210 leukemia cells; L-1210, 5 ug/ml, pulse 1 hr) was 61%. For the same compound, the “Percent Tumor Cell Survival” value (L-1210 leukemia cells; L-1210, 5 ug/ml, pulse 2 hr) was 57%, the “Percent Tumor Cell Survival” value (L-1210 leukemia cells; L-1210, 5 ug/ml, pulse 4 hr) was 35% and the “Percent Tumor Cell Survival” value (L-1210 leukemia cells; L-1210, 5 ug/ml, pulse .25 hr) was 72%. For the same compound, the “Percent Tumor Cell Survival” value (L-1210 leukemia cells; L-1210, 5 ug/ml, pulse .5 hr) was 60%, the “Percent Tumor Cell Survival” value (L-1210 leukemia cells; L-1210, 10 ug/ml, pulse 1 hr) was 27% and the “Percent Tumor Cell Survival” value (L-1210 leukemia cells; L-1210, 10 ug/ml, pulse 2 hr) was 31%. The “Percent Tumor Cell Survival” value (L-1210 leukemia cells; L-1210, 10 ug/ml, pulse 4 hr) was 37%, the “Percent Tumor Cell Survival” value (L-1210 leukemia cells; L-1210, 10 ug/ml, pulse .25 hr) was 53% and the “Percent Tumor Cell Survival” value (L-1210 leukemia cells; L-1210, 10 ug/ml, pulse .5 hr) was 40%. The “Percent Tumor Cell Survival” value (L-1210 leukemia cells; L-1210, 20 ug/ml, pulse 1 hr) was 0%, the “Percent Tumor Cell Survival” value (L-1210 leukemia cells; L-1210, 20 ug/ml, pulse .25 hr) was 0% and the “Percent Tumor Cell Survival” value (L-1210 leukemia cells; L-1210, 20 ug/ml, pulse .5 hr) was 0%. For the same compound, the “Percent Tumor Cell Survival” value (L-1210 leukemia cells; L-1210, 25 ug/ml, pulse 1 hr) was 0%, the “Percent Tumor Cell Survival” value (L-1210 leukemia cells; L-1210, 25 ug/ml, pulse 2 hr) was 0% and the “Percent Tumor Cell Survival” value (L-1210 leukemia cells; L-1210, 25 ug/ml, pulse 4 hr) was 0%. The “Percent Tumor Cell Survival” value (L-1210 leukemia cells; L-1210, 25 ug/ml, pulse .25 hr) was 20%, the “Percent Tumor Cell Survival” value (L-1210 leukemia cells; L-1210, 25 ug/ml, pulse .5 hr) was 7% and the “reductions in tumor cell survival at initiation of in vitro cultures” value (L-1210 leukemia cells; L-1210, 50 ug/ml for as long as 4 hrs (all three tumor systems)) was 0-6%. For the same compound, the “Percent Tumor Cell Survival” value (L-1210 leukemia cells; L-1210, .5 ug/ml, pulse 1 hr) was 83%, the “Percent Tumor Cell Survival” value (L-1210 leukemia cells; L-1210, .5 ug/ml, pulse 2 hr) was 94% and the “Percent Tumor Cell Survival” value (L-1210 leukemia cells; L-1210, .5 ug/ml, pulse 4 hr) was 68%. For the same compound, the “Percent Tumor Cell Survival” value (L-1210 leukemia cells; L-1210, .5 ug/ml, pulse .25 hr) was 95%, the “Percent Tumor Cell Survival” value (L-1210 leukemia cells; L-1210, .5 ug/ml, pulse .5 hr) was 90% and the “L-1210 cells destroyed compared to mammary tumor and melanoma cells” value (L-1210 leukemia cells; any given concentration, 30 min or 1 hr pulse, 5 days) was “approximately 5 times”. For the same compound, the “decrease of level of p24 compared to virions from solvent cultures” value (MMTV polypeptides) was 36%, the “level of nonglycosylated protein p24 in MMTV particles” value (MMTV polypeptides) was “substantial decreases” and the “level of p24 protein in the virion core” value (MMTV polypeptides) was “diminution”. The “reduction in p24” value (MMTV polypeptides) was 71%, the “relative level of p24 compared to control” value (MMTV polypeptides) was 35-40% and the “relative contribution of p24 in the virions, % of control level” value (MMTV polypeptides; hydrochloride) was 54% and 74% and 65%. For the same compound, the T.C.D.100 (L1210/L-PAM leukemia) was 30.0, the “surviving fraction at end of examination period” value (L1210/L-PAM leukemia) was 0.8-3% and the “percentage of viable cells” value (L1210/L-PAM leukemia; 3.75 µM) was 40-50%. It also gave an IC50 (L1210/L-PAM leukemia; Mus musculus, L1210/LPAM, 24 h, read-out: T.C.D.50) of 3000 nM.
